Data from patent US12649734B2, “Bioavailable protein disulfide isomerase inhibitors” (THE CLEVELAND CLINIC FOUNDATION, priority 2020, dated 2026).

Legend:
Liver microsome assay = format: in vitro ADME; conditions: 0.25 mg/mL human liver microsomes
Procedure: FIGS. 8A & 8B provide graphs showing the stability of CCF642-34 and restriction of multiple myeloma in a syngeneic mouse model by PDIA1-inhibitor CCF642-34. (A) The stability of CCF642-34 was measured against oxidative metabolism by human liver microsomes. CCF642-34 (20 μM) was incubated with 0.25 mg/mL of human liver microsomes for 5 h. The residual compound at indicated time points was measured by HPLC (Agilent 1260 Infinity II) interfaced with reverse phase C18 column using 280 nm and 245 nm detection wavelength. The standard curve of known concentrations of CCF642-34 was obtained from the area under the peak at two wavelengths, and the remaining CCF642-34 was estimated. Data are representative of two independent experiments. […] The survival of each group was monitored, and Kaplan-Meier survival analysis was performed. […]
Liver microsome assay: 20 μM CCF642 or CCF642-34 were incubated with 1 mM NADPH and 0.25 mg/mL human liver microsomes (Sigma, Cat. No: M0567) at 37° C. […] Supernatant was obtained after centrifugation at 15,000 g for 5 min and the remaining compound in supernatant was analyzed by Agilent 1260 Infinity II HPLC with Ultra-violet (UV) detector using Gemini column, […] particle size 150×2 mm (Phenomenex). […] The relative amount of drug at each time point was determined by using the UV peak detection at wavelength 254 and 282 nm. […]

[1] = tested on: BTZ-resistant MM1.S cells; experiment: Cell viability assay, BTZ-resistant MM1.S; format: cell-based, human
Procedure: Cells and reagents: MM1.S-luc-BTZ (BTZ®)-resistant cell line was made in our laboratory. Starting with 1 nM concentration, MM1.S-luc cells were treated with BTZ and exposed continuously for 5 days and removed for 2 days before re-exposure to the drug until the growth of the cells mimicked the parental cell line. Incremental increase of the drug was applied until the concentration of 8 nM was reached. […] BTZ was procured from Millennium Pharmaceuticals Inc. All cell lines that are used in this study and their detailed information are shown in table 1 below.
Cell viability assay: Cell viability was measured in 96 well culture plates (2×10^4 cells/well) using CellTiter-Glo® Luminescent Cell Viability Assay (Promega, Madison, WI, USA) according to the manufacturer's protocol.

PDIA1 = PDIA1 (Homo sapiens, UniProt P07237); experiment: PDIA1 activity assay, insulin reduction; format: biochemical; parameters: His6 (6xHN, pET6xHN-N vector) (N); made in house; host or cells: Escherichia coli BL21 (DE3) NiCo; conditions: read-out: inactivation constant, Kinact for PDIA1
Sequence of PDIA1 (P07237 18-508): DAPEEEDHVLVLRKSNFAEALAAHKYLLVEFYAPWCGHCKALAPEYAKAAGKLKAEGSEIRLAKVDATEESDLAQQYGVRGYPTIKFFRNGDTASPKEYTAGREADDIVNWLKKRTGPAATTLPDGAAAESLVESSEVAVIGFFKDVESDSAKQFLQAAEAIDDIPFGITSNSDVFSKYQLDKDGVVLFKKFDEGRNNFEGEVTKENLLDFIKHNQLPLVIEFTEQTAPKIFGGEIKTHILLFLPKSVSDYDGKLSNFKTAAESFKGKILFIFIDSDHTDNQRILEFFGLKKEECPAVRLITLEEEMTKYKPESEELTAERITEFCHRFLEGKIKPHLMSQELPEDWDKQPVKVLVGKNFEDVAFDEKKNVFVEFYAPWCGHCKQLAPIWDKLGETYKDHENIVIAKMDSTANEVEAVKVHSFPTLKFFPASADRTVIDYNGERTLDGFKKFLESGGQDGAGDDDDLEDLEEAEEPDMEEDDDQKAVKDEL
Procedure: PDI activity: All PDI activity assays were performed using two different substrates, insulin and di-eosin-diglutathione (di-E-GSSG) as described earlier (Vatolin et al., Ibid) with brief modifications. PDIA1 (1 μM) was incubated for 1 h with varying concentrations of PDIA1 inhibitors 642 or 642-34 (0.1, 03, 1, 5, 10, or 20 μM) in 100 mM sodium phosphate pH 7.0, 2 mM EDTA, and 1% DMSO. Bovine insulin (100 μM) and DTT (1 mM) were added to initiate the reaction. Kinetic readings were taken every minute for 2 h at 650 nm absorbance using a BioTek Synergy plate reader (BioTek Instruments, Inc., Winooski, VT, USA). For highly sensitive fluorescence-based assays, di-E-GSSG as a pseudo substrate was utilized to access the activity of PDIA1. Raturi, A.; Mutus, B., Free. Radic. Biol. Med., 43, 62-70 (2007) Known concentrations of recombinant PDIA1 were mixed with 10 mM GSH and incubated at 37° C. for 30 min in 150 mM K2HPO4/KH2PO4 (pH 7.1) buffer solution. PDI inhibitor was added into the mixture and incubated for an additional 30 min at 37° C. […] Synergy H1 plate reader (BioTek, WI, USA) was used for kinetic analysis using excitation at 518 nm, emission at 545 nm, reads of 0.1 sec/well every minute at 25° C. for 1 h. Baseline fluorescence was determined from di-E-GSSG reactions without PDI and GSH. […]

For `NC(CC1CNc2ccccc21)C(=O)NCCCOc1ccc(N2C(=O)/C(=C/c3ccc([N+](=O)[O-])s3)SC2=S)cc1` (stereo not drawn) [CCF642-34], the half-life at 20 µM (Liver microsome assay) was > 5 h, the “sensitivity of BTZ-resistant MM1.S compared to parental BTZ-naive MM1.S” value [1] was ~2 fold and the KI (inactivation) (PDIA1) was 0.1 ± 0.0085 µM.
